# Data reported in patent publication US8188089B2, “Tylophorine analogs as antitumor agents” (The University of North Carolina at Chapel Hill, priority 2006, dated 2012).
# Structures can show the parent of a compound that is named as a salt.
# Legend:
# KB (nasopharyngeal) = assay: Cell growth inhibition assay (SRB), Example 2, KB; type: cell-based, human; conditions: Table 6, 72-h continuous treatment
# Description: (§1) Drug-Resistance Study. Twelve active compounds [including four hydrochloride salts (18b, 22b, 24b, 32b) of corresponding active free bases (18a, 22a, 24a, 32a)] were further screened against an extended panel of human tumor cell lines including DU-145 (prostate), ZR-751 (breast), KB (nasopharyngeal), and KB-VIN (multidug-resistant KB subline) in order to explore their antitumor spectra and drug-resistance profiles. Four compounds were used as reference compounds. Antofine is a positional isomer of tylophorine isolated from Asclepiadaceae by Dr. T. S. Wu in Taiwan (Wu, P. L. et al., Heterocycles 2002; 57:2401). […] Doxorubicin (Adriamycin), vincristine, and etoposide (VP-16, Vepesid®) are widely used anticancer agents for treating a range of solid tumors.
# (§2) Cell Growth Inhibition Assay. The sulforhodamine B assay was used according to the procedures developed and validated at NCI. The in vitro anticancer activities are expressed as ED50 values, which is the test compound concentration (μM) that reduced the cell number by 50% after 72-h of continuous treatment. The values were interpolated from dose-response data. Each test was performed in triplicate with variation less than 5%. The ED50 values determined in each of independent tests varied less than 10%. Compound stock solutions were prepared in DMSO with the final solvent concentration ≦1% DMSO (v/v), a concentration without effect on cell replication. The cells were cultured at 37° C. in RPMI-1640 supplemented with 25 mM N-2-hydroxyethylpiperazine-N′-2-ethanesulfonic acid (HEPES), […], 10% (v/v) fetal bovine serum, and 100 μg/mL kanamycin in a humidified atmosphere containing 5% CO2.
# DU-145 (prostate) = assay: Cell growth inhibition assay (SRB), Example 2, DU-145; type: cell-based, human; conditions: Table 6, 72-h continuous treatment
# Description: as §1, §2
# ZR-751 (breast) = assay: Cell growth inhibition assay (SRB), Example 2, ZR-751; type: cell-based, human; conditions: Table 6, 72-h continuous treatment
# Description: as §1, §2
# [1] = system: KB-VIN (multidug-resistant KB subline); assay: Cell growth inhibition assay (SRB), Example 2, KB-VIN; type: cell-based, human; conditions: Table 6, 72-h continuous treatment
# Description: as §1, §2
# [2] = system: human A549 lung cancer cell line; assay: Cell growth inhibition assay (SRB), Example 2, A549; type: cell-based
# Description: Cell Growth Inhibition Assay. The sulforhodamine B assay was used according to the procedures developed and validated at NCI. […] The values were interpolated from dose-response data.
# [3] = system: human A549 lung cancer cell line; assay: Cell growth inhibition assay (SRB), Example 1; type: cell-based; conditions: for IC50: 72 h, A549, SRB, 3 days exposure; for EC50: table footnotes of Example 1, A549
# Description: Results and discussion. […] Etoposide (VP-16) was used as the reference compound.
# Cell Growth Inhibition Assay. The human A549 lung cancer cell line was used for the cytotoxicity screening of PBT derivatives using the cell-based sulforhodamine B (SRB) microtitre plate assay. […] Duration of compound exposure was 3 days.
# [4] = Table 4, ED50, 72-h continuous treatment, NA = not active, read-out: A549 (μM), in vitro anticancer activity against A549 lung cancer cells
# [5] = Table 6, 72-h continuous treatment, read-out: EC50 (μM) A549
# [6] = Homo sapiens, Table 1, NA = Not Active
# [7] = Homo sapiens, A549, 72 h, Table 4, ED50, 72-h continuous treatment, NA = not active, read-out: A549 (μM), in vitro anticancer activity against A549 lung cancer cells
# [8] = Homo sapiens, A549, 72 h, Table 6, 72-h continuous treatment, read-out: EC50 (μM) A549
structure (smiles),measurement,setting,value
CC(CCCCO)NCc1cc2cc3c(cc2c2cc(OCc4ccccc4)ccc12)OCO3 (centres unmarked),melting point,,175 to 177 °C
O=C(O)CCCCNCc1cc2cc3c(cc2c2cc(OCc4ccccc4)ccc12)OCO3,melting point,,197 to 199 °C
COc1ccc2c(CNCCCCCC(=O)O)cc3cc4c(cc3c2c1)OCO4,melting point,,167 to 169 °C
COc1ccc2c(CNCCCCCCCCCCC(=O)O)cc3cc4c(cc3c2c1)OCO4,melting point,,146 to 148 °C
CCCCCC(CCCCCO)NCc1cc2cc3c(cc2c2cc(OC)ccc12)OCO3 (centres unmarked),melting point,,122 to 124 °C
COc1ccc2c(CNCCCCC(=O)O)cc3cc4c(cc3c2c1)OCO4,melting point,,145 to 146 °C
COc1ccc2c(CNCCCCCO)cc3cc4c(cc3c2c1)OCO4,melting point,,125 to 126 °C
COc1ccc2c(CNCCCCCC(=O)O)cc3cc(OC)c(OC)cc3c2c1,melting point,,133 to 134 °C
"COc1ccc2c3c(c4cc(OC)c(OC)cc4c2c1)C[C@H]1CCCN1C3 [Antofine, reference compound]",EC50,KB (nasopharyngeal),0.013 µM
same,EC50,DU-145 (prostate),0.009 µM
same,EC50,ZR-751 (breast),0.008 µM
same,EC50,[1],0.009 µM
same,EC50,[2]; [4],0.008 µM
same,EC50,[2]; [5],0.008 µM
"O=C(O)c1cc2cc3c(cc2c2cc(OCc4ccccc4)ccc12)OCO3 [Compound 7a, 2,3-Methylenedioxy-6-benzyloxy-phenanthrene-9-carboxylic acid]",melting point,,263 to 265 °C
"COc1ccc2c(C(=O)O)cc3cc4c(cc3c2c1)OCO4 [Compound 7b, 2,3-Methylenedioxy-6-methoxy-phenanthrene-9-carboxylic acid]",melting point,,293 to 295 °C
"COc1ccc2c(C(=O)O)cc3cc(OC)c(OC)cc3c2c1 [Compound 7c, 2,3,6-Trimethoxyphenanthrene-9-carboxylic acid]",melting point,,241 to 243 °C
"COC(=O)CCCCCNC(=O)c1cc2cc3c(cc2c2cc(OCc4ccccc4)ccc12)OCO3 [Compound 10, Methyl N-(2,3-methylenedioxy-6-benzyloxy-phenanthr-9-ylcarbonyl)-6-aminohexanoate]",IC50,[3]; [6],41200 nM
"O=C(O)CCCCCNC(=O)c1cc2cc3c(cc2c2cc(OCc4ccccc4)ccc12)OCO3 [Compound 11, N-(2,3-methylenedioxy-6-benzyloxy-phenanthr-9-ylcarbonyl)-6-aminohexanoic acid]",melting point,,198 to 200 °C
same,IC50,[3]; [6],41200 nM
"O=C(O)CCCCCNCc1cc2cc3c(cc2c2cc(OCc4ccccc4)ccc12)OCO3 [Compound 12, N-(2,3-Methylenedioxy-6-benzyloxy-phenanthr-9-ylmethyl)-6-aminohexanoic acid]",melting point,,184 to 186 °C
same,IC50,[3]; [6],1600 nM
"O=C(O)[C@@H]1CCCN1Cc1cc2cc3c(cc2c2cc(OCc4ccccc4)ccc12)OCO3 [Compound 18, N-(2,3-Methylenedioxy-6-benzyloxy-phenanthr-9-ylmethyl)-L-proline]",melting point,,147 to 149 °C
same,IC50,[3]; [6],4400 nM
same,EC50,[3]; Homo sapiens,4400 nM
"COc1ccc2c(CN3CCCC[C@H]3CO)cc3cc4c(cc3c2c1)OCO4 [Compound 18a, N-(2,3-Methylenedioxy-6-methoxy-phenanthr-9-ylmethyl)-L-2-piperidinemethanol]",EC50,DU-145 (prostate),0.21 µM
same,EC50,ZR-751 (breast),0.1 µM
same,EC50,[2]; [5],0.2 µM
"COc1ccc2c(CN3CCCC[C@H]3CO)cc3cc4c(cc3c2c1)OCO4 [Compound 18b, N-(2,3-Methylenedioxy-6-methoxy-phenanthr-9-ylmethyl)-L-2-piperidinemethanol hydrochloride]",EC50,KB (nasopharyngeal),0.12 µM
same,EC50,DU-145 (prostate),0.09 µM
same,EC50,ZR-751 (breast),0.08 µM
same,EC50,[1],0.09 µM
same,EC50,[2]; [5],0.16 µM
"O=C(O)[C@@H]1CCCN1C(=O)c1cc2cc3c(cc2c2cc(O)ccc12)OCO3 [Compound 22, N-(2,3-Methylenedioxy-6-hydroxy-phenanthr-9-ylcarbonyl)-L-proline]",melting point,,230 to 231 °C
same,IC50,[3]; [6],39700 nM
"COc1ccc2c(CNCCCCCCO)cc3cc4c(cc3c2c1)OCO4 [Compound 22a, N-(2,3-Methylenedioxy-6-methoxy-phenanthr-9-ylmethyl)-6-aminohexanol]",melting point,,145 to 147 °C
same,EC50,"KB (nasopharyngeal); Homo sapiens, 72 h",0.25 µM
same,EC50,"DU-145 (prostate); Homo sapiens, DU-145, 72 h",0.04 µM
same,EC50,"ZR-751 (breast); Homo sapiens, ZR-75-1, 72 h",0.13 µM
same,EC50,[1],0.35 µM
same,EC50,[2]; [7],0.2 µM
same,EC50,[2]; [8],0.16 µM
"COc1ccc2c(CN3CCC(CO)CC3)cc3cc4c(cc3c2c1)OCO4 [Compound 24a, N-(2,3-Methylenedioxy-6-methoxy-phenanthr-9-ylmethyl)-L-4-piperidinemethanol]",EC50,KB (nasopharyngeal),0.24 µM
same,EC50,DU-145 (prostate),0.03 µM
same,EC50,ZR-751 (breast),0.03 µM
same,EC50,[1],0.09 µM
same,EC50,[2]; [4],0.08 µM
same,EC50,[2]; [5],0.08 µM
"COc1ccc2c(CN3CCC[C@H]3CO)cc3cc4c(cc3c2c1)OCO4 [Compound 32, N-(2,3-Methylenedioxy-6-methoxy-phenanthr-9-ylmethyl)-L-prolinol]",melting point,,138 to 139 °C
same,IC50,[3]; [6],700 nM
"COc1ccc2c(CN3CCCC[C@H]3C(=O)O)cc3cc(OC)c(OC)cc3c2c1 [Compound 37, N-(2,3,6-Trimethoxyphenanthr-9-ylmethyl)-L-2-piperidinecarboxylic acid]",EC50,[3],9700 nM
"COc1ccc2c(CN3CCCC[C@H]3CO)cc3cc(OC)c(OC)cc3c2c1 [Compound 38, N-(2,3,6-Trimethoxyphenanthr-9-ylmethyl)-L-2-piperidinemethanol]",EC50,[3],6300 nM
"COc1ccc(/C(=C\c2cc(OC)c(OC)cc2[N+](=O)[O-])C(=O)N2CCC[C@H]2C(=O)O)cc1 [Compound 39, 1-[3-(4,5-Dimethoxy-2-nitrophenyl)-2-(4-methoxyphenyl)-acryloyl]-pyrrolidine-2-carboxylic acid]",IC50,"[3]; Homo sapiens, Table 3",80000 nM
"COc1ccc(/C(=C\c2cc(OC)c(OC)cc2[N+](=O)[O-])CN2CCC[C@H]2C(=O)O)cc1 [Compound 40, 1-[3-(4,5-Dimethoxy-2-nitrophenyl)-2-(4-methoxyphenyl)-allyl]-pyrrolidine-2-carboxylic acid]",IC50,"[3]; Homo sapiens, Table 3",45200 nM
"COc1ccc(/C(=C\c2cc(OC)c(OC)cc2[N+](=O)[O-])CN2CCC[C@H]2CO)cc1 [Compound 41, {1-[3-(4,5-Dimethoxy-2-nitrophenyl)-2-(4-methoxyphenyl)-allyl]-pyrrolidin-2-yl}-methanol]",IC50,"[3]; Homo sapiens, Table 3",11700 nM
"COc1ccc(/C(=C\c2ccc(OC)c(OC)c2)CN2CCC[C@H]2CO)cc1 [Compound 42, {1-[3-(3,4-Dimethoxyphenyl)-2-(4-methoxyphenyl)allyl]-pyrrolidin-2-yl}-methanol]",IC50,"[3]; Homo sapiens, Table 3",52200 nM
"COc1cccc2c1C(=O)c1c(O)c3c(c(O)c1C2=O)C[C@@](O)(C(=O)CO)C[C@@H]3O[C@H]1C[C@H](N)[C@H](O)[C@H](C)O1 [Doxorubicin, reference compound]",EC50,"KB (nasopharyngeal); Homo sapiens, 72 h",0.18 µM
same,EC50,"DU-145 (prostate); Homo sapiens, DU-145, 72 h",0.13 µM
same,EC50,"ZR-751 (breast); Homo sapiens, ZR-75-1, 72 h",0.04 µM
same,EC50,"[1]; Homo sapiens, KBVIN, 72 h",> 4 µM
same,EC50,[2]; [7],0.18 µM
same,EC50,[2]; [8],0.18 µM
"CC[C@H]1CN2CCc3cc(OC)c(OC)cc3[C@@H]2C[C@@H]1C[C@H]1NCCc2cc(OC)c(OC)cc21 [Emetine, reference compound]",EC50,"KB (nasopharyngeal); Homo sapiens, 72 h",0.04 µM
same,EC50,"DU-145 (prostate); Homo sapiens, DU-145, 72 h",0.06 µM
same,EC50,"ZR-751 (breast); Homo sapiens, ZR-75-1, 72 h",0.1 µM
same,EC50,"[1]; Homo sapiens, KBVIN, 72 h",> 2 µM
same,EC50,[2]; [7],0.04 µM
same,EC50,[2]; [8],0.04 µM
"CC[C@]1(O)C[C@H]2CN(CCc3c([nH]c4ccccc34)[C@@](C(=O)OC)(c3cc4c(cc3OC)N(C=O)[C@H]3[C@@](O)(C(=O)OC)[C@H](OC(C)=O)[C@]5(CC)C=CCN6CC[C@]43[C@@H]65)C2)C1 [Vincristine, reference compound]",EC50,"KB (nasopharyngeal); Homo sapiens, 72 h",0.006 µM
same,EC50,"DU-145 (prostate); Homo sapiens, DU-145, 72 h",0.085 µM
same,EC50,"ZR-751 (breast); Homo sapiens, ZR-75-1, 72 h",0.04 µM
same,EC50,"[1]; Homo sapiens, KBVIN, 72 h",5.3 µM
same,EC50,[2]; [7],0.04 µM
same,EC50,[2]; [8],0.04 µM
